Reference: patent US10799605B2 (3B PHARMACEUTICALS GMBH, priority 2014, dated 2020)
Read-outs that look alike come from different tables or passages of the source.

How the values were obtained:
NTR1 = NTR1 (Homo sapiens (Human), UniProt P30989); assay: Functional Ca2+ mobilisation assay (example part II); format: cell-based; details: antagonist assay
How it was run: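 HT29 or NTR1-expressing HEK293 cells loaded with Ca5 dye for 1 h at 37 °C in buffer at pH 7.4, and fluorescence recorded for about 90 s after addition. EC50 derived from agonist serial dilutions; IC50 from antagonists pre-incubated 30 min before an EC80 agonist challenge.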

5-HT2B (h) = 5-HT2B (h) (Homo sapiens (Human), UniProt P41595); assay: ExpresSProfile: 5-hydroxytryptamine receptor 2B, agonist radioligand; format: binding; details: Test Concentration 1.0E−05 M
A3 (h) = A3 (h) (Homo sapiens (Human), UniProt P0DMS8); assay: ExpresSProfile: adenosine receptor 3, agonist radioligand; format: binding; details: Test Concentration 1.0E−05 M
[1] = target: norepinephrine transporter (h) (Homo sapiens (Human), UniProt P23975); assay: ExpresSProfile: norepinephrine transporter, antagonist radioligand; format: binding; details: Test Concentration 1.0E−05 M
dopamine transporter (h) = dopamine transporter (h) (Homo sapiens (Human), UniProt Q01959); assay: ExpresSProfile: dopamine transporter, antagonist radioligand; format: binding; details: Test Concentration 1.0E−05 M
SKCa channel = assay: ExpresSProfile: SKCa channel, antagonist radioligand; format: binding; details: Test Concentration 1.0E−05 M
sst (non-selective) = assay: ExpresSProfile: somatostatin receptor, agonist radioligand; format: binding; details: Test Concentration 1.0E−05 M
NTS1 (NT1) (h) = NTS1 (NT1) (h) (Homo sapiens (Human), UniProt P30989); assay: ExpresSProfile: neurotensin receptor 1, agonist radioligand; format: binding; details: Test Concentration 1.0E−05 M
delta 2 (DOP) (h) = delta 2 (DOP) (h) (Homo sapiens (Human), UniProt P41143); assay: ExpresSProfile: delta2 opioid receptor, agonist radioligand; format: binding; details: Test Concentration 1.0E−05 M
NOP (ORL1) (h) = NOP (ORL1) (h) (Homo sapiens (Human), UniProt P41146); assay: ExpresSProfile: nociception receptor, agonist radioligand; format: binding; details: Test Concentration 1.0E−05 M
A2A (h) = A2A (h) (Homo sapiens (Human), UniProt P29274); assay: ExpresSProfile: adenosine receptor 2A, agonist radioligand; format: binding; details: Test Concentration 1.0E−05 M
[2] = Plasma stability assay, human plasma; format: in vitro ADME
Method: The plasma stability assay was performed to measure the degradation of compounds of the present invention in plasma. This is an important characteristic of a compound as compounds, with the exception of pro-drugs, which rapidly degrade in plasma generally show poor in vivo efficacy.
The plasma was spiked with a 10 mM analyte solution in dimethyl sulfoxide to a final concentration of 10 μM, vortexed, and aliquotted to 50 μl samples. Two aliquots were stored at −20° C. until further treatment. Another two aliquots were incubated using an Eppendorf Thermomixer at 37° C. for 1, 4, and 24 hours. Sample clean-up was performed using a protein precipitation plate (Phenomenex Strata Impact, 64722-1-324-1) and using acetonitrile as precipitation agent. […] An aliquot of 10 μl was diluted with 90 μl 0.1% aqueous trifluoroacetic acid solution. The determination of the analyte in the clean sample solutions was performed on a Thermo TSQ Quantum Ultra triple quadrupole mass spectrometer equipped with a thermo Surveyor HPLC. The chromatographic separation was carried out on a Phenomenex Kinetex XB-C18 HPLC column (50×2 mm, […] particle size) with gradient elution using a mixture of 0.01% trifluoroacetic acid and 0.05% formic acid in water as eluent A and methanol as eluent B (20% B to 100% in 8 min, 400 μl/min, 40° C.). For mass spectrometric detection the selected reaction monitoring (SRM) was used.
Quantitation was performed by external matrix calibration using an internal standard.

M2 (h) = M2 (h) (Homo sapiens (Human), UniProt P08172); assay: ExpresSProfile: muscarinic receptor 2, antagonist radioligand; format: binding; details: Test Concentration 1.0E−05 M
ETA (h) = ETA (h) (Homo sapiens (Human), UniProt P25101); assay: ExpresSProfile: endothelin receptor A, agonist radioligand; format: binding; details: Test Concentration 1.0E−05 M
NK2 (h) = NK2 (h) (Homo sapiens (Human), UniProt P21452); assay: ExpresSProfile: neurokinin receptor 2, agonist radioligand; format: binding; details: Test Concentration 1.0E−05 M
[3] = read-out: % Inhibition of Control Specific Binding
[4] = read-out: % of Control Specific Binding 1st
[5] = read-out: % of Control Specific Binding 2nd
[6] = read-out: % of Control Specific Binding Mean

Chain of NOP (ORL1) (h) (P41146 whole entry): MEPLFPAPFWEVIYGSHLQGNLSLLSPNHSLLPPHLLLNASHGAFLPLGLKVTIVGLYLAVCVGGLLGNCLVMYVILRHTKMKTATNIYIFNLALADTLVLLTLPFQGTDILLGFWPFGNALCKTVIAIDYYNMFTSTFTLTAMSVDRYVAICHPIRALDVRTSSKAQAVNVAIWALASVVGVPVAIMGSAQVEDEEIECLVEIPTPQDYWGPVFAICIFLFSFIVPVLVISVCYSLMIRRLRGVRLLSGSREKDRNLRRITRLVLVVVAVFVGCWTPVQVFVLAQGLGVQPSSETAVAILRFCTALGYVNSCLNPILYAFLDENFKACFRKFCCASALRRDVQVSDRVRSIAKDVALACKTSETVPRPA
Chain of dopamine transporter (h) (Q01959 whole entry): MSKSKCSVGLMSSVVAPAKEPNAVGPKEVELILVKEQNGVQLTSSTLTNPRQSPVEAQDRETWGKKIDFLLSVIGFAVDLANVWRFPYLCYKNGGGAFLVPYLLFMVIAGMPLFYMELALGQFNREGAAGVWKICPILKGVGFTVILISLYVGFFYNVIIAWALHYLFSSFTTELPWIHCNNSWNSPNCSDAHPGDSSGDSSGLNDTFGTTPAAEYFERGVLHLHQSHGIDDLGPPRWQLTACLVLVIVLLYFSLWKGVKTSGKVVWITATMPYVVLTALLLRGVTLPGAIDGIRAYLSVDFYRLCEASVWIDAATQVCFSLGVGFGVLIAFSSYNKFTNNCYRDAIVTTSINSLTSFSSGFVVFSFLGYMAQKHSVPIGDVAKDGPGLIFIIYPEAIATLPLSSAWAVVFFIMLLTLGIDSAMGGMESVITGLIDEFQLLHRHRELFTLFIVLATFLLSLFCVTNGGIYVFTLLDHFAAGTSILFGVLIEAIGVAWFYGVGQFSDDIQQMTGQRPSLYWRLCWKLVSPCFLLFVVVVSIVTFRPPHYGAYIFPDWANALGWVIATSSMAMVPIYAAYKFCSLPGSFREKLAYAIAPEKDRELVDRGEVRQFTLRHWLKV
Chain of 5-HT2B (h) (P41595 whole entry): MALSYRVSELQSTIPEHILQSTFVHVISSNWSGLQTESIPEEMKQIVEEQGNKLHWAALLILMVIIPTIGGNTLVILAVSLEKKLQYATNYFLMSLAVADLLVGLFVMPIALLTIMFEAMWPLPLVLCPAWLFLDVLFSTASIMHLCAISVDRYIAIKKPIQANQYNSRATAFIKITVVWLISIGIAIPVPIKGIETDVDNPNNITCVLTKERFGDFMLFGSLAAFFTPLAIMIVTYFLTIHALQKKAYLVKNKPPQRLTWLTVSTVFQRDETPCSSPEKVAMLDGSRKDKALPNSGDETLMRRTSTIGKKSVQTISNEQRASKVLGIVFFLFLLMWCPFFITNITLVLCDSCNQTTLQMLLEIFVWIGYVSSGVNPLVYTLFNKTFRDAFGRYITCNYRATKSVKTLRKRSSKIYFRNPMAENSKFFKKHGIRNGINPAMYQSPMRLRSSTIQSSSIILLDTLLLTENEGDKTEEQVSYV
Chain of A3 (h) (P0DMS8 whole entry): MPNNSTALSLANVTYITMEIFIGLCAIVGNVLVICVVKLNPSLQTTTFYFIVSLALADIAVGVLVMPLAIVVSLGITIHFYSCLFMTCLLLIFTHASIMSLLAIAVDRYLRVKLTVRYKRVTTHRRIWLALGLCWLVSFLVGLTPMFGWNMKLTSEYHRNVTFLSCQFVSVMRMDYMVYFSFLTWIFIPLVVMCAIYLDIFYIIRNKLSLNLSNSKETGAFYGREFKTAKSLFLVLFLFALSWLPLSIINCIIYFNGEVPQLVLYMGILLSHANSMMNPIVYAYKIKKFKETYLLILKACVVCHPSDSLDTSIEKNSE
Chain of norepinephrine transporter (h) (P23975 whole entry): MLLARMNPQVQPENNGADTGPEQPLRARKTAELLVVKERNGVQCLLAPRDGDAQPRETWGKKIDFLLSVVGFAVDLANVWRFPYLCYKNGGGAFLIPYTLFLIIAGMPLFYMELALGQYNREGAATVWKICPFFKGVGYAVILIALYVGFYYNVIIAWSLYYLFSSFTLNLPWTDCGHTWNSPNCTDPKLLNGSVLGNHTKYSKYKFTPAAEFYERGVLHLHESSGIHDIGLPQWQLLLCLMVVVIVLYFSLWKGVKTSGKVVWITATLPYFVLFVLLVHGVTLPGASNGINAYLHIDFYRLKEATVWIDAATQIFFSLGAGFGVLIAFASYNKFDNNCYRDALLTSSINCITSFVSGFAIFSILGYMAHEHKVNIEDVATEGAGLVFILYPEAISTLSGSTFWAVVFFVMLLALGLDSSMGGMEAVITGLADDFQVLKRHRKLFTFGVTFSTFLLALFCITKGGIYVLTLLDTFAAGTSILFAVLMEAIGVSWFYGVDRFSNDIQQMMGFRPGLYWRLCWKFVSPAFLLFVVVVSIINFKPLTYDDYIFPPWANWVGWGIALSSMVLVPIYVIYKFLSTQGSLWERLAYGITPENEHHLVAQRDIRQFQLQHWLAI
Chain of delta 2 (DOP) (h) (P41143 whole entry): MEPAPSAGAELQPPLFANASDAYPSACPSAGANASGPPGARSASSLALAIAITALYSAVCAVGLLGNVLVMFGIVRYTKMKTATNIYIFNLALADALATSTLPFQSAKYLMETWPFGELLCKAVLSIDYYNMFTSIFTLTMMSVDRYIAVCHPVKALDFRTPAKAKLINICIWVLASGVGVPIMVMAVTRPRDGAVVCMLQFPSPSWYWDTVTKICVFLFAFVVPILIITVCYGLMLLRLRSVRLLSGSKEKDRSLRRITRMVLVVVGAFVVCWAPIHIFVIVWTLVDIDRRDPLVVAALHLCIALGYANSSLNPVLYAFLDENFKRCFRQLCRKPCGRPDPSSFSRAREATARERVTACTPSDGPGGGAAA
Chain of NK2 (h) (P21452 whole entry): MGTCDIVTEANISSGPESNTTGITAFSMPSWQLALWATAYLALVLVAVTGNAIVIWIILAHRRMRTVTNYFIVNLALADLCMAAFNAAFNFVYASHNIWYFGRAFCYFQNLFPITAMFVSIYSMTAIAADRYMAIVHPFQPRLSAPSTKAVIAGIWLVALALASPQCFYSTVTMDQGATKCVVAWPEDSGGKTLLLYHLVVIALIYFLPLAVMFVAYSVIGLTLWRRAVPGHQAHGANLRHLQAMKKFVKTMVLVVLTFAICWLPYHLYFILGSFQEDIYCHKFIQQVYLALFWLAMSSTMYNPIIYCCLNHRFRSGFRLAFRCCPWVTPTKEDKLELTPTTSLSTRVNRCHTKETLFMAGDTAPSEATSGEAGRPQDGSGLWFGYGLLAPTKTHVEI
Chain of ETA (h) (P25101 21-427): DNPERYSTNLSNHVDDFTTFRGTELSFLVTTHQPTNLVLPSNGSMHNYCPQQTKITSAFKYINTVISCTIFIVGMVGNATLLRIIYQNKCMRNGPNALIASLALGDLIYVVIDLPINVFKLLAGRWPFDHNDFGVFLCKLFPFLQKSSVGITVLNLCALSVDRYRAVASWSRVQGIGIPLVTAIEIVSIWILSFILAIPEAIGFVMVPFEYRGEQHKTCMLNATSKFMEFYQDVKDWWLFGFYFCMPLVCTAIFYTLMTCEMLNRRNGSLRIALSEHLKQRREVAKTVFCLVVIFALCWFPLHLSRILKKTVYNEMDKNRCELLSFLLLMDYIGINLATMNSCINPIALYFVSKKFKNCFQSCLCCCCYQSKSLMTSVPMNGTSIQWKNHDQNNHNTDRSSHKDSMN
Chain of A2A (h) (P29274 whole entry): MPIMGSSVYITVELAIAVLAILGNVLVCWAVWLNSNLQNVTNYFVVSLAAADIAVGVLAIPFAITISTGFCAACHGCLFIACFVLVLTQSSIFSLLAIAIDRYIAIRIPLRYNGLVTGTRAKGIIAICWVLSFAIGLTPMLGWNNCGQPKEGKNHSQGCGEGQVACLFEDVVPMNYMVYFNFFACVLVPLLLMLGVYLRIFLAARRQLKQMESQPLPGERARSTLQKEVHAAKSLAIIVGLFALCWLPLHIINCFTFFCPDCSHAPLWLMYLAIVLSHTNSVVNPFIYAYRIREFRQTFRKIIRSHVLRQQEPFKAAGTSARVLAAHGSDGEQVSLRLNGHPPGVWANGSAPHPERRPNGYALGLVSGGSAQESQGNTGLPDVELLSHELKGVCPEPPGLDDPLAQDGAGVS
Chain of NTS1 (NT1) (h) (P30989 whole entry): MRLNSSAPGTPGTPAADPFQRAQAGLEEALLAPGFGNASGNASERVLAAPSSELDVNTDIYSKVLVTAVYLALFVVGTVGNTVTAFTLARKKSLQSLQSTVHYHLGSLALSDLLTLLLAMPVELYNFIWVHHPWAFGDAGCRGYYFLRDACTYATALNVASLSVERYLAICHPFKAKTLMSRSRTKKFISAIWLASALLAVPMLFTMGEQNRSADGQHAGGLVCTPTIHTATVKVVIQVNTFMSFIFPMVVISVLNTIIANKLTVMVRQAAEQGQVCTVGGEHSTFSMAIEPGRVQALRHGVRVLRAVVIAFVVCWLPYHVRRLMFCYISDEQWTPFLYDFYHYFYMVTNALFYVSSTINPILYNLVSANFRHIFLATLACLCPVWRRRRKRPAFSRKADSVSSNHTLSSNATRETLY
Chain of M2 (h) (P08172 whole entry): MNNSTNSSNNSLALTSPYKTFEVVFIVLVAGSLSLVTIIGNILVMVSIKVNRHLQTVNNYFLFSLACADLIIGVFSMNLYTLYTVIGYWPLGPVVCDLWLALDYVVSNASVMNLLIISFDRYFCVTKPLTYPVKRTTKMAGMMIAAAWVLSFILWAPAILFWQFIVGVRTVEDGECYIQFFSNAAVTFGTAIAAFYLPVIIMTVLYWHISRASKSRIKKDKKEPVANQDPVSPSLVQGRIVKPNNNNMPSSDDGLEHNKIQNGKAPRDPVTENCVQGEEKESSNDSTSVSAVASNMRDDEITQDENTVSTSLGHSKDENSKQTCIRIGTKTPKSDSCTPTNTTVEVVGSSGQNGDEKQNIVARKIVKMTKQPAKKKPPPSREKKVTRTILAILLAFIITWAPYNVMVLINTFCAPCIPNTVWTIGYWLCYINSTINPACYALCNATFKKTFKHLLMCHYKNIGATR
Chain of NTR1 (P30989 whole entry): as the sequence (P30989 whole entry) above

`COc1cccc(OC)c1-c1cc(C(=O)NC2(C(=O)O)C3CC4CC(C3)CC2C4)nn1-c1ccc(C(=O)N(C)CCCN(C)CCCN(C)C(=O)CN2CCN(CC(=O)O)CCN(CC(=O)O)CCN(CC(=O)O)CC2)cc1C(C)C` (centres unmarked) [(IIIa), 2-{[1-{4-[(3-{[3-(DOTA-methyl-amino)-propyl]-methyl-amino}-propyl)-methyl-carbamoyl]-2-isopropyl-phenyl}-5-(2,6-dimethoxy-phenyl)-1H-pyrazole-3-carbonyl]-amino}-adamantane-2-carboxylic acid] showed an IC50 (NTR1) of 20 nM, an inhibition at 10 µM (5-HT2B (h); [3]) of -22% and a remaining activity at 10 µM (5-HT2B (h); [4]) of 118%. For the same molecule, the remaining activity at 10 µM (5-HT2B (h); [5]) was 125%, the remaining activity at 10 µM (5-HT2B (h); [6]) was 122% and the inhibition at 10 µM (A3 (h); [3]) was -41%. For the same molecule, the remaining activity at 10 µM (A3 (h); [4]) was 129%, the remaining activity at 10 µM (A3 (h); [5]) was 154% and the remaining activity at 10 µM (A3 (h); [6]) was 141%. It also gave an inhibition at 10 µM [1, 3] of -12%, a remaining activity at 10 µM [1, 4] of 119% and a remaining activity at 10 µM [1, 5] of 105%. The remaining activity at 10 µM [1, 6] was 112%, the inhibition at 10 µM (dopamine transporter (h); [3]) was -15% and the remaining activity at 10 µM (dopamine transporter (h); [4]) was 124%. The remaining activity at 10 µM (dopamine transporter (h); [5]) was 106%, the remaining activity at 10 µM (dopamine transporter (h); [6]) was 115% and the “% Inhibition of Control Specific Binding” value (SKCa channel) was 4%. For the same molecule, the “% of Control Specific Binding 1st” value (SKCa channel) was 97.3%, the “% of Control Specific Binding 2nd” value (SKCa channel) was 95.2% and the “% of Control Specific Binding Mean” value (SKCa channel) was 96.2%. The “% Inhibition of Control Specific Binding” value (sst (non-selective)) was −11%, the “% of Control Specific Binding 1st” value (sst (non-selective)) was 111.6% and the “% of Control Specific Binding 2nd” value (sst (non-selective)) was 110.0%. For the same molecule, the “% of Control Specific Binding Mean” value (sst (non-selective)) was 110.8%, the inhibition at 10 µM (NTS1 (NT1) (h); [3]) was 99% and the remaining activity at 10 µM (NTS1 (NT1) (h); [4]) was 2.7%. The remaining activity at 10 µM (NTS1 (NT1) (h); [5]) was -0.1%, the remaining activity at 10 µM (NTS1 (NT1) (h); [6]) was 1.3% and the inhibition at 10 µM (delta 2 (DOP) (h); [3]) was -6%. The remaining activity at 10 µM (delta 2 (DOP) (h); [4]) was 107%, the remaining activity at 10 µM (delta 2 (DOP) (h); [5]) was 105% and the remaining activity at 10 µM (delta 2 (DOP) (h); [6]) was 106%. The inhibition at 10 µM (NOP (ORL1) (h); [3]) was -7%, the remaining activity at 10 µM (NOP (ORL1) (h); [4]) was 104% and the remaining activity at 10 µM (NOP (ORL1) (h); [5]) was 109%. For the same molecule, the remaining activity at 10 µM (NOP (ORL1) (h); [6]) was 107%, the “% Inhibition of Control Specific Binding” value (A2A (h)) was 5% and the “% of Control Specific Binding 1st” value (A2A (h)) was 104.2%. For the same molecule, the “% of Control Specific Binding 2nd” value (A2A (h)) was 85.6%, the “% of Control Specific Binding Mean” value (A2A (h)) was 94.9% and the “stability in human plasma” value [2] was “highly stable”. The “% remaining after 24 h incubation, Human plasma” value ([2]; 10 μM, 37° C., 24 h) was greater than 90%, the inhibition at 10 µM (M2 (h); [3]) was -17% and the remaining activity at 10 µM (M2 (h); [4]) was 124%. It also gave a remaining activity at 10 µM (M2 (h); [5]) of 111%, a remaining activity at 10 µM (M2 (h); [6]) of 117% and an inhibition at 10 µM (ETA (h); [3]) of -10%. For the same molecule, the remaining activity at 10 µM (ETA (h); [4]) was 114%, the remaining activity at 10 µM (ETA (h); [5]) was 105% and the remaining activity at 10 µM (ETA (h); [6]) was 110%. The “% Inhibition of Control Specific Binding” value (NK2 (h)) was 66%, the inhibition at 10 µM (NK2 (h); [3]) was 66% and the remaining activity at 10 µM (NK2 (h); [4]) was 34.5%. For the same molecule, the remaining activity at 10 µM (NK2 (h); [5]) was 33.7% and the remaining activity at 10 µM (NK2 (h); [6]) was 34.1%.
